Test results: patent US20080187588A1, “Formulations With Controlled Release Of Active Ingredient” (Bayer HealthCare AG, priority 2004, published 2008)
Counter-ions that a name gives are not always drawn.

Key:
[1] = pH-dependent solubility of vardenafil hydrochloride trihydrate; assay type: physicochemical
From the text: This great pH-dependence represents a hindrance in particular to the development of pharmaceutical dosage forms with controlled release of active ingredient for oral use, because the medicinal form is exposed on passage through the gastrointestinal (GI) tract to media with pH values varying greatly from about pH 1 to pH 7.5. In order to achieve a sufficient bioavailability from a slow-release medicinal form, a substance must be absorbed if possible over the entire gastrointestinal tract. […] A slowing of the release of active ingredient usually leads in the case of substances subject to a very large first-pass effect to complete loss of the oral bioavailability, because the slow rise in level of the active ingredient means that the concentrations in the portal vein blood remain so low that the capacity of the metabolizing liver enzymes is sufficient for complete degradation.

[2] = cited from earlier work

Q: Which results are given for `CCCc1nc(C)c2c(=O)[nH]c(-c3cc(S(=O)(=O)N4CCN(CC)CC4)ccc3OCC)nn12` [vardenafil hydrochloride trihydrate]?
A: solubility ([1]; aqueous buffer, in 0.15 M phosphate buffer of pH 4): 870 µg/mL; solubility ([1]; aqueous buffer, in 0.15 M phosphate buffer of pH 7): 30 µg/mL; solubility ([1]; simulated gastric fluid, in 0.1 N hydrochloric acid): 65000 µg/mL

Q: For `CCCc1nc(C)c2c(=O)[nH]c(-c3cc(S(=O)(=O)N4CCN(CC)CC4)ccc3OCC)nn12` [vardenafil, {2-ethoxy-5-[(4-ethyl-1-piperazinyl)sulphonyl]phenyl}-5-methyl-7-propylimidazo[5,1-f]triazin-4(3H)-one], which absolute oral bioavailability [2] is on record?
A: The absolute oral bioavailability was 15%.
